According to ChEMBL document CHEMBL1201862, “PubChem BioAssay data set” (2004):
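These data come from cells grown in 96-well plates and exposed to compound for 48 hours at five concentrations. Here, GI50 denotes the concentration required for 50% inhibition of growth.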 The source made the active and inactive calls. Cut-off read from the data, not from the text of the source: active = GI50 up to about 1.1 µM and inactive = higher.

Legend:
Assay in all cases: NCI anticancer screen, dose series, 48 h
[1] = tested on: SF-295
[2] = tested on: CAKI-1
[3] = tested on: SF-268
[4] = tested on: OVCAR-5
[5] = tested on: MOLT-4
[6] = tested on: HOP-62
[7] = tested on: LXFL 529
[8] = tested on: 786-0
[9] = tested on: HT-29
[10] = tested on: KM12
[11] = tested on: NCI-H23
[12] = tested on: UACC-257
[13] = tested on: DMS-273
[14] = tested on: OVCAR-8
[15] = tested on: LOX IMVI
[16] = tested on: OVCAR-3
[17] = tested on: SNB-75
[18] = tested on: A549
[19] = tested on: HCC 2998
[20] = tested on: M14
[21] = tested on: UO-31
[22] = tested on: SF-539
[23] = tested on: HCT-15
[24] = tested on: SK-MEL-2
[25] = tested on: SNB-19
[26] = tested on: HOP-18
[27] = tested on: HCT-116
[28] = tested on: SK-OV-3
[29] = tested on: CCRF-CEM
[30] = tested on: TK-10
[31] = tested on: U-251
[32] = tested on: KM-20L2
[33] = tested on: OVCAR-4
[34] = tested on: K562
[35] = tested on: M19-MEL
[36] = tested on: IGROV-1
[37] = tested on: A498
[38] = tested on: SN12C
[39] = tested on: ACHN
[40] = tested on: SK-MEL-5
[41] = tested on: Malme-3M
[42] = tested on: DLD-1
[43] = tested on: UACC-62
[44] = tested on: SW-620
[45] = tested on: EKVX
[46] = tested on: SNB-78
[47] = tested on: DMS-114
[48] = tested on: COLO 205
[49] = tested on: RPMI-8226
[50] = tested on: NCI-H460
[51] = tested on: XF498
[52] = tested on: HL-60
[53] = tested on: RXF 393
[54] = tested on: SK-MEL-28
[55] = tested on: NCI-H522
[56] = tested on: NCI-H226
[57] = tested on: HOP-92

In the case of CCCC1C(=O)CCc2c(OC)ccc(OC)c21 (stereo not drawn), the GI50 [1] is reported as > 100 µM (inactive), the GI50 [2] is reported as > 100 µM (inactive) and the GI50 [3] is reported as 91.8 µM (inactive). The GI50 [4] was > 100 µM (inactive), the GI50 [5] was 49.1 µM (inactive) and the GI50 [6] was > 100 µM (inactive). The GI50 [7] was > 100 µM (inactive), the GI50 [8] was > 100 µM (inactive) and the GI50 [9] was > 100 µM (inactive). For the same compound, the GI50 [10] was > 100 µM (inactive), the GI50 [11] was > 100 µM (inactive) and the GI50 [12] was > 100 µM (inactive). The GI50 [13] was > 100 µM (inactive), the GI50 [14] was 92.7 µM (inactive) and the GI50 [15] was > 100 µM (inactive). For the same compound, the GI50 [16] was 73.6 µM (inactive), the GI50 [17] was 57.5 µM (inactive) and the GI50 [18] was > 100 µM (inactive). The GI50 [19] was > 100 µM (inactive), the GI50 [20] was > 100 µM (inactive) and the GI50 [21] was 17.1 µM (inactive). The GI50 [22] was > 100 µM (inactive), the GI50 [23] was > 100 µM and the GI50 [24] was > 100 µM (inactive). For the same compound, the GI50 [25] was 99.8 µM (inactive), the GI50 [26] was 2.61 µM (inactive) and the GI50 [27] was 51.9 µM (inactive). For the same compound, the GI50 [28] was > 100 µM (inactive), the GI50 [29] was 72.3 µM (inactive) and the GI50 [30] was > 100 µM (inactive). For the same compound, the GI50 [31] was > 100 µM (inactive), the GI50 [32] was > 100 µM (inactive) and the GI50 [33] was > 100 µM (inactive). For the same compound, the GI50 [34] was 59 µM (inactive), the GI50 [35] was > 100 µM (inactive) and the GI50 [36] was > 100 µM (inactive). The GI50 [37] was > 100 µM (inactive), the GI50 [38] was > 100 µM (inactive) and the GI50 [39] was > 100 µM (inactive). The GI50 [40] was > 100 µM (inactive), the GI50 [41] was > 100 µM (inactive) and the GI50 [42] was > 100 µM (inactive). For the same compound, the GI50 [43] was > 100 µM (inactive), the GI50 [44] was > 100 µM (inactive) and the GI50 [45] was > 100 µM (inactive). The GI50 [46] was > 100 µM (inactive), the GI50 [47] was 48.2 µM (inactive) and the GI50 [48] was > 100 µM (inactive). The GI50 [49] was 65.9 µM (inactive), the GI50 [50] was > 100 µM (inactive) and the GI50 [51] was > 100 µM (inactive). For the same compound, the GI50 [52] was 73.8 µM (inactive) and the GI50 [53] was > 100 µM (inactive).

Cc1cc2nc3c(=O)n(C)c(=O)nc-3n(-c3ccc(Cl)cc3)c2cc1C was tested, and the GI50 [1] was 12.2 µM (inactive), the GI50 [2] was 16.4 µM (inactive) and the GI50 [3] was 11.4 µM (inactive). For the same compound, the GI50 [4] was 18.5 µM (inactive), the GI50 [5] was 11.2 µM (inactive) and the GI50 [6] was 24.4 µM (inactive). For the same compound, the GI50 [7] was 14 µM (inactive), the GI50 [8] was 16.1 µM (inactive) and the GI50 [9] was 3.51 µM (inactive). The GI50 [10] was 16 µM (inactive), the GI50 [11] was 3.81 µM (inactive) and the GI50 [12] was 6.75 µM (inactive). The GI50 [54] was 15.2 µM (inactive), the GI50 [13] was 5.62 µM (inactive) and the GI50 [14] was 13.1 µM (inactive). For the same compound, the GI50 [16] was 2.57 µM (inactive), the GI50 [17] was 11.4 µM (inactive) and the GI50 [18] was 3.52 µM (inactive). For the same compound, the GI50 [19] was 3.95 µM (inactive), the GI50 [20] was 3.29 µM (inactive) and the GI50 [21] was 20 µM (inactive). For the same compound, the GI50 [22] was 11.2 µM (inactive), the GI50 [23] was 3.68 µM and the GI50 [24] was 11.8 µM (inactive). For the same compound, the GI50 [25] was 5.78 µM (inactive), the GI50 [26] was 6.87 µM (inactive) and the GI50 [27] was 11.9 µM (inactive). The GI50 [28] was 25.6 µM (inactive), the GI50 [29] was 13.6 µM (inactive) and the GI50 [55] was > 10 µM (inactive). For the same compound, the GI50 [30] was 31.9 µM (inactive), the GI50 [31] was 9.66 µM (inactive) and the GI50 [32] was 3.62 µM (inactive). The GI50 [33] was 5.16 µM (inactive), the GI50 [34] was 12.8 µM (inactive) and the GI50 [35] was 2.32 µM (inactive). For the same compound, the GI50 [36] was 14.6 µM (inactive), the GI50 [37] was 31.1 µM (inactive) and the GI50 [38] was 5.85 µM (inactive). For the same compound, the GI50 [39] was 11.4 µM (inactive), the GI50 [40] was 1.72 µM (inactive) and the GI50 [41] was 10 µM (inactive). For the same compound, the GI50 [42] was 14.5 µM (inactive), the GI50 [43] was 2.91 µM (inactive) and the GI50 [44] was 4.2 µM (inactive). For the same compound, the GI50 [45] was 20.1 µM (inactive), the GI50 [56] was 13.1 µM (inactive) and the GI50 [46] was 18.5 µM (inactive). For the same compound, the GI50 [47] was 3.1 µM (inactive), the GI50 [48] was 2.24 µM (inactive) and the GI50 [49] was 6.37 µM (inactive). For the same compound, the GI50 [57] was 13.9 µM (inactive), the GI50 [50] was 3.3 µM (inactive) and the GI50 [51] was 1.29 µM (inactive). For the same compound, the GI50 [52] was 3.34 µM (inactive).

With Nc1c(-c2ccc(Cl)cc2)[n+]([O-])c2ccccc2[n+]1[O-] the GI50 [1] was 87.7 µM (inactive), the GI50 [2] was > 100 µM (inactive) and the GI50 [3] was 59.8 µM (inactive). For the same compound, the GI50 [4] was > 100 µM (inactive), the GI50 [5] was 27.3 µM (inactive) and the GI50 [6] was > 100 µM (inactive). For the same compound, the GI50 [7] was 52.7 µM (inactive), the GI50 [8] was > 100 µM (inactive) and the GI50 [9] was > 100 µM (inactive). For the same compound, the GI50 [10] was > 100 µM (inactive), the GI50 [11] was 54.6 µM (inactive) and the GI50 [12] was 58.5 µM (inactive). For the same compound, the GI50 [54] was 76.9 µM (inactive), the GI50 [13] was > 100 µM (inactive) and the GI50 [14] was > 100 µM (inactive). The GI50 [15] was > 100 µM (inactive), the GI50 [16] was 67.3 µM (inactive) and the GI50 [17] was 67.3 µM (inactive). For the same compound, the GI50 [18] was > 100 µM (inactive), the GI50 [19] was 49.9 µM (inactive) and the GI50 [20] was > 100 µM (inactive). The GI50 [21] was 5.86 µM (inactive), the GI50 [22] was > 100 µM (inactive) and the GI50 [23] was 76.4 µM. For the same compound, the GI50 [24] was > 100 µM (inactive), the GI50 [25] was 34.8 µM (inactive) and the GI50 [26] was 20.7 µM (inactive). The GI50 [28] was > 100 µM (inactive), the GI50 [29] was 54.5 µM (inactive) and the GI50 [55] was 25.3 µM (inactive). For the same compound, the GI50 [30] was > 100 µM (inactive), the GI50 [31] was 62.2 µM (inactive) and the GI50 [32] was > 100 µM (inactive). For the same compound, the GI50 [33] was 69.3 µM (inactive), the GI50 [34] was 49.3 µM (inactive) and the GI50 [35] was > 100 µM (inactive). The GI50 [36] was > 100 µM (inactive), the GI50 [37] was 95.3 µM (inactive) and the GI50 [38] was 95.1 µM (inactive). The GI50 [39] was 57.1 µM (inactive), the GI50 [40] was > 100 µM (inactive) and the GI50 [41] was > 100 µM (inactive). The GI50 [42] was 88.7 µM (inactive), the GI50 [43] was > 100 µM (inactive) and the GI50 [44] was > 100 µM (inactive). The GI50 [45] was > 100 µM (inactive), the GI50 [56] was 14.5 µM (inactive) and the GI50 [46] was > 100 µM (inactive). For the same compound, the GI50 [47] was 46.1 µM (inactive), the GI50 [48] was > 100 µM (inactive) and the GI50 [49] was 34.5 µM (inactive). The GI50 [57] was 28.1 µM (inactive), the GI50 [50] was 94.2 µM (inactive) and the GI50 [51] was 42.7 µM (inactive). For the same compound, the GI50 [52] was 32.4 µM (inactive).
